# Measurements as given in ChEMBL document CHEMBL3991601, “The target landscape of clinical kinase drugs” (Science, 2017).
# Activity calls are given as the source filed them.
# Tests used:
# [1] = molecular target: T1, Peroxisomal acyl-coenzyme A oxidase 1 (Homo sapiens, UniProt Q15067)
# T1 sequence (Q15067 whole entry): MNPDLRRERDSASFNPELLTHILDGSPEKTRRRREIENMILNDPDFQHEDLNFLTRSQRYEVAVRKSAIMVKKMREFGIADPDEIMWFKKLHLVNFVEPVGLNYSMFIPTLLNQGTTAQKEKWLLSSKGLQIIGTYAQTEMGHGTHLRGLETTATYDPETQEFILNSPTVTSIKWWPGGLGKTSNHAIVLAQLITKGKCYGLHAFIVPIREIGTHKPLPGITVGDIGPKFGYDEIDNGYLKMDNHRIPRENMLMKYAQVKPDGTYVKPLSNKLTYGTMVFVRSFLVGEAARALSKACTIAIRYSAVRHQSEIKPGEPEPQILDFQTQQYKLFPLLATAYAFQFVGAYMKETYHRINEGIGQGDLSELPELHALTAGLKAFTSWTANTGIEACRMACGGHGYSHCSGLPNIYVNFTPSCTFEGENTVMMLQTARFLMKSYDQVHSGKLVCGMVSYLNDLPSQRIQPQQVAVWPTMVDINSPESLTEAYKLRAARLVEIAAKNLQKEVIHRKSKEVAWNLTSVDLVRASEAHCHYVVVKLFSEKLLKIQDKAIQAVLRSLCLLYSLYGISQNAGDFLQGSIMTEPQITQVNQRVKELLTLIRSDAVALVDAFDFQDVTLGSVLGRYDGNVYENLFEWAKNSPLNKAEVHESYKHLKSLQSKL
# Activin receptor type-2B = Activin receptor type-2B (Homo sapiens, UniProt Q13705)
# [2] = molecular target: Casein kinase I isoform gamma-1 (Homo sapiens, UniProt Q9HCP0)
# Ephrin type-B receptor 2 = molecular target: T2, Ephrin type-B receptor 2 (Homo sapiens, UniProt P29323)
# T2 sequence (P29323 whole entry): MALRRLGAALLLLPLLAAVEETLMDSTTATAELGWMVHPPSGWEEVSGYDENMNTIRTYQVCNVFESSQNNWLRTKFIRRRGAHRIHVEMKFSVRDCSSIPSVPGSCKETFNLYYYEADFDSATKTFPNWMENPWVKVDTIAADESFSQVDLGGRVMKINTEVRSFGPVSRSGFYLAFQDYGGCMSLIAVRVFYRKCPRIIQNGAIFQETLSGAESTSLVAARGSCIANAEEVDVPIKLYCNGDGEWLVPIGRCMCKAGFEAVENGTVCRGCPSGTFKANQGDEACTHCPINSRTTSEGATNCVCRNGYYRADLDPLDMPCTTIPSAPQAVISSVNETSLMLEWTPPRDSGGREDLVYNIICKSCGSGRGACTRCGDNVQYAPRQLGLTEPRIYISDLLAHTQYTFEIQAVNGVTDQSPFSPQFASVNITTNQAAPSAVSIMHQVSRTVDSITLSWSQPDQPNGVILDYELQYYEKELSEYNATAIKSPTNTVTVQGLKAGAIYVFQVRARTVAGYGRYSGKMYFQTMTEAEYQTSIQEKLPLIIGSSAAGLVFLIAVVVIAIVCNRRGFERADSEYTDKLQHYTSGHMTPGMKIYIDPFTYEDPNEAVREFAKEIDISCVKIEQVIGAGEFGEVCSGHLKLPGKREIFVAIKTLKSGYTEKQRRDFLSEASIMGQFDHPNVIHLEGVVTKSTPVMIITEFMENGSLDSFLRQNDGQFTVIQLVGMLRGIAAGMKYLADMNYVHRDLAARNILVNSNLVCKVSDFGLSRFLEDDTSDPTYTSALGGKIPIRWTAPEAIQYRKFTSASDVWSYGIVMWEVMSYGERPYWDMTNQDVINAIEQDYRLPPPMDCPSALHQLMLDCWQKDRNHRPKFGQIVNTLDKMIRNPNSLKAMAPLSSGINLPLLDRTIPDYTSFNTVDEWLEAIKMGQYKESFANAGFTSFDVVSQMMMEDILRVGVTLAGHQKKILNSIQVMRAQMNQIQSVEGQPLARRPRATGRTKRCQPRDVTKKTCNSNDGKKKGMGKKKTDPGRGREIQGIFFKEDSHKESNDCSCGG
# [3] = molecular target: T3, Mitogen-activated protein kinase kinase kinase 3 (Homo sapiens, UniProt Q99759)
# T3 sequence (Q99759 whole entry): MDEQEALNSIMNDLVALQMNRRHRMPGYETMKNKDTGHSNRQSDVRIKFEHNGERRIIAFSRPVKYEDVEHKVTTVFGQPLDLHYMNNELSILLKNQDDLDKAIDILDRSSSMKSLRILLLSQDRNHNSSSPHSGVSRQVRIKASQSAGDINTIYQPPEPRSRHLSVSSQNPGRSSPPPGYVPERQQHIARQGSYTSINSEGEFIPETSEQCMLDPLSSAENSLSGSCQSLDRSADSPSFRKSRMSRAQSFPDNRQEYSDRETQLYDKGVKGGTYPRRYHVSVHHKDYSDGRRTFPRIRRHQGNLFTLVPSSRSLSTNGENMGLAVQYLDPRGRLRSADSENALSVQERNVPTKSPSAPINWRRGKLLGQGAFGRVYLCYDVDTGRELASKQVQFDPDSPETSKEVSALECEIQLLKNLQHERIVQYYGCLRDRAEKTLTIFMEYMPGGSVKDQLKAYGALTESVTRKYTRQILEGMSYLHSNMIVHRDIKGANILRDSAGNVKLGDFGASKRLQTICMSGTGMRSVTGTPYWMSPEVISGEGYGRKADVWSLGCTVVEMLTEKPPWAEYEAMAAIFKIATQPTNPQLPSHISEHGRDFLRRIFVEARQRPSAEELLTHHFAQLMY
# Also: in the data inactive means no Kd found up to 30 µM.
# Casein kinase I isoform gamma-1, sequence (Q9HCP0 whole entry, canonical isoform): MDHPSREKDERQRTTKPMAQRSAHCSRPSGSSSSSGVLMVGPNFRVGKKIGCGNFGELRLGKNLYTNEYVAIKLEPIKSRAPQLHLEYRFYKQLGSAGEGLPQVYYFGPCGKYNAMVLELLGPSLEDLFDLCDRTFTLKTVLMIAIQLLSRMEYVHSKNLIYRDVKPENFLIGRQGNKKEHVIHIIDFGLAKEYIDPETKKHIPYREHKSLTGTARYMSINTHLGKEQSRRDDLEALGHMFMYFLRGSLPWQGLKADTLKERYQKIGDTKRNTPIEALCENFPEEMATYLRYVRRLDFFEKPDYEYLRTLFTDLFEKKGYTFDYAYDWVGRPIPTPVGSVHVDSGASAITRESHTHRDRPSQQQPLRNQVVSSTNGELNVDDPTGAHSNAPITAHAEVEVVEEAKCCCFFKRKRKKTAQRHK
# Activin receptor type-2B, sequence (Q13705 whole entry, canonical isoform): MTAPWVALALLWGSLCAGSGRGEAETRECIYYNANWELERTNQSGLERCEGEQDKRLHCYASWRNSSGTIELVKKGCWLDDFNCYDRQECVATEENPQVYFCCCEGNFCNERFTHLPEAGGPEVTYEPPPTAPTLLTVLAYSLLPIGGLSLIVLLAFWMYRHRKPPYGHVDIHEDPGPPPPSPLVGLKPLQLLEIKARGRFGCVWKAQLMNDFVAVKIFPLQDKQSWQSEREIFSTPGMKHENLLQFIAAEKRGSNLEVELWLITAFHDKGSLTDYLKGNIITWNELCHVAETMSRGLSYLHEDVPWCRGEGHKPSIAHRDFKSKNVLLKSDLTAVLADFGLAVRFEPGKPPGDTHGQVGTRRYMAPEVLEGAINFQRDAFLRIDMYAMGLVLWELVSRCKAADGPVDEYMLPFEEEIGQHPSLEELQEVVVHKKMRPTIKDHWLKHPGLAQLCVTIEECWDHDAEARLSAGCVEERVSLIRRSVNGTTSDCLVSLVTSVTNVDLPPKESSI
SMILES,Kd [1],Kd (Activin receptor type-2B),Kd [2],Kd (Ephrin type-B receptor 2),Kd [3]
CCc1cnn2c(NCc3ccc[n+]([O-])c3)cc(N3CCCC[C@H]3CCO)nc12 [DINACICLIB],> 30 µM (inactive),> 30 µM (inactive),> 30 µM (inactive),> 30 µM (inactive),> 30 µM (inactive)
Cn1ncc(Cl)c1-c1cc(C(=O)N[C@H](CN)Cc2cccc(F)c2)sc1Cl [AFURESERTIB],> 30 µM (inactive),> 30 µM (inactive),> 30 µM (inactive),> 30 µM (inactive),> 30 µM (inactive)
CC[C@H](Nc1ncnc2[nH]cnc12)c1nc2cccc(F)c2c(=O)n1-c1ccccc1 [IDELALISIB],> 30 µM (inactive),> 30 µM (inactive),> 30 µM (inactive),> 30 µM (inactive),> 30 µM (inactive)
O=C(O)[C@]1(Cc2cccc(Nc3nccs3)n2)CC[C@@H](Oc2cccc(Cl)c2F)CC1 [MK-5108],–,> 30 µM (inactive),> 30 µM (inactive),> 30 µM (inactive),> 30 µM (inactive)
CN(C)C(=O)c1cc2cnc(Nc3ccc(N4CCNCC4)cn3)nc2n1C1CCCC1 [RIBOCICLIB],> 30 µM (inactive),> 30 µM (inactive),> 30 µM (inactive),> 30 µM (inactive),> 30 µM (inactive)
C[C@@H]1CN(Cc2ccc(F)cc2)[C@@H](C)CN1C(=O)c1cc2c(C(=O)C(=O)N(C)C)cn(C)c2cc1Cl [TALMAPIMOD],> 30 µM (inactive),> 30 µM (inactive),> 30 µM (inactive),> 30 µM (inactive),> 30 µM (inactive)
O=C1NC(=O)/C(=C/c2ccc3nccc(-c4ccncc4)c3c2)S1 [GSK-1059615],> 30 µM (inactive),> 30 µM (inactive),17.5 µM (active),> 30 µM (inactive),> 30 µM (inactive)
Cn1cc(-c2ccc3nnc(C(F)(F)c4ccc5ncccc5c4)n3n2)cn1 [JNJ-38877605],> 30 µM (inactive),> 30 µM (inactive),> 30 µM (inactive),> 30 µM (inactive),> 30 µM (inactive)
CO[C@H]1C[C@@H]2CC[C@@H](C)[C@@](O)(O2)C(=O)C(=O)N2CCCC[C@H]2C(=O)O[C@H]([C@H](C)C[C@@H]2CC[C@@H](OCCO)[C@H](OC)C2)CC(=O)[C@H](C)/C=C(\C)[C@@H](O)[C@@H](OC)C(=O)[C@H](C)C[C@H](C)/C=C/C=C/C=C/1C [EVEROLIMUS],> 30 µM (inactive),> 30 µM (inactive),> 30 µM (inactive),> 30 µM (inactive),> 30 µM (inactive)
CC(C)Nc1cc(-c2c[nH]c(C(=O)N[C@H](CO)c3cccc(Cl)c3)c2)c(Cl)cn1 [ULIXERTINIB],> 30 µM (inactive),> 30 µM (inactive),> 30 µM (inactive),> 30 µM (inactive),> 30 µM (inactive)
COc1cc2nccc(Oc3ccc(NC(=O)NC4CC4)c(Cl)c3)c2cc1C(N)=O [LENVATINIB],> 30 µM (inactive),> 30 µM (inactive),> 30 µM (inactive),> 30 µM (inactive),> 30 µM (inactive)
Cc1ccc(-n2nc(C(C)(C)C)cc2NC(=O)NCc2cc(F)ccc2Oc2ccc3c(cnn3CCO)c2)cc1 [PEXMETINIB],–,> 30 µM (inactive),> 30 µM (inactive),> 30 µM (inactive),> 30 µM (inactive)
OCCn1cc(-c2cnc3nnn(Cc4ccc5ncccc5c4)c3n2)cn1 [PF-04217903],> 30 µM (inactive),> 30 µM (inactive),> 30 µM (inactive),> 30 µM (inactive),> 30 µM (inactive)
CC(=O)Nc1cccc(-n2c(=O)n(C3CC3)c(=O)c3c(Nc4ccc(I)cc4F)n(C)c(=O)c(C)c32)c1 [TRAMETINIB],> 30 µM (inactive),> 30 µM (inactive),> 30 µM (inactive),> 30 µM (inactive),> 30 µM (inactive)
CN1CCN(c2ccc3nc(-c4c(N)c5c(F)cccc5[nH]c4=O)[nH]c3c2)CC1 [DOVITINIB],> 30 µM (inactive),–,–,–,–
COC(=O)N[C@@H](C)CNc1nccc(-c2cn(C(C)C)nc2-c2cc(Cl)cc(NS(C)(=O)=O)c2F)n1 [ENCORAFENIB],> 30 µM (inactive),> 30 µM (inactive),> 30 µM (inactive),> 30 µM (inactive),> 30 µM (inactive)
O=C(Nc1ccc(-c2ccnc(Nc3ccc(N4CCOCC4)cc3)n2)cc1)C1CCCN1 (stereo not drawn) [XL-019],> 30 µM (inactive),> 30 µM (inactive),> 30 µM (inactive),> 30 µM (inactive),> 30 µM (inactive)
Cc1cc(Nc2cc(N3CCN(C)CC3)nc(/C=C/c3ccccc3)n2)n[nH]1 [ENMD-2076],> 30 µM (inactive),> 30 µM (inactive),–,> 30 µM (inactive),> 30 µM (inactive)
CCn1c(=O)c(-c2cc[nH]n2)cc2c(C)nc(N)nc21 [VOXTALISIB],> 30 µM (inactive),> 30 µM (inactive),> 30 µM (inactive),> 30 µM (inactive),> 30 µM (inactive)
COCCNCc1ccc(-c2cc3nccc(Oc4ccc(NC(=S)NC(=O)Cc5ccc(F)cc5)cc4F)c3s2)nc1 [GLESATINIB],–,> 30 µM (inactive),> 30 µM (inactive),> 30 µM (inactive),> 30 µM (inactive)
COc1cc(OC)c(/C=C/S(=O)(=O)Cc2ccc(OC)c(NCC(=O)O)c2)c(OC)c1 [RIGOSERTIB],–,> 30 µM (inactive),> 30 µM (inactive),> 30 µM (inactive),> 30 µM (inactive)
CCn1c(-c2nonc2N)nc2c(C#CC(C)(C)O)ncc(OC[C@H]3CCCNC3)c21 [GSK-690693],> 30 µM (inactive),–,–,–,–
O=C(Nc1cccc(Cl)c1)Nc1ncc(CCNc2ncnc3ccsc23)s1 [SNS-314],> 30 µM (inactive),> 30 µM (inactive),–,> 30 µM (inactive),> 30 µM (inactive)
Nc1nc(N)c2nc(-c3cccc(O)c3)c(-c3cccc(O)c3)nc2n1 [TG100-115],> 30 µM (inactive),–,–,–,–
Cc1nc(N)sc1-c1ccnc(Nc2ccc(N3CCOCC3)cc2)n1 [CYC-116],> 30 µM (inactive),> 30 µM (inactive),–,–,> 30 µM (inactive)
Cc1c(F)cc(C(=O)NC2CC2)cc1-c1ccc(C(=O)NCC(C)(C)C)cn1 [LOSMAPIMOD],–,> 30 µM (inactive),> 30 µM (inactive),> 30 µM (inactive),> 30 µM (inactive)
Cc1ccc(S(=O)(=O)Nc2nc3ccccc3nc2Nc2ccc3nsnc3c2)cc1,> 30 µM (inactive),–,> 30 µM (inactive),> 30 µM (inactive),> 30 µM (inactive)
